Assay results as given in patent publication US20250090515A1, “1-Deoxynojirimycin To Mitigate Hepatic Ischemia- Reperfusion” (KING FAISAL UNIVERSITY, priority 2023, published 2025).

Key:
Assay type in all cases: in vivo, Wistar male rats
[1] = tested on: H I/R-induced injury; assay: Histopathological examination (H&E, Suzuki grading) of ischemic liver
Experimental: (§1) Wistar male rats (age: 6-8 weeks; weight: 200-230 g) were obtained from Experimental Animal Research Centre, King Saud University, Riyadh, K S A. The animals were acclimatized with standard laboratory food and water ad libitum in ventilated cages system (12 h light/dark cycles, 20.3-23.1° C.) then kept throughout the whole experiment under the same conditions.
(§2) Rats were anesthetized with isoflurane with oxygen (2%, 0.5 L/h) throughout the whole surgery, under heat control and aseptic conditions. Animals' abdomen was shaved and sterilized, and a surgical incision (about 3 cm) from the pubic to the sternum was executed. The portal triad, comprising the hepatic artery, portal vein, and common bile duct, was clamped using a micro-vascular clamp for 60 min to prompt ischemia. Hepatic reperfusion was accompanied by releasing the micro-vascular clamp and permitted reperfusion for six hours. The sham-operated animals were subjected to all the procedures that occurred during H I/R, deprived of blood flow blockage.
1-Deoxynojirimycin hydrochloride (1-DNJ) was purchased from Merck (Merck & Co., USA, product number D 9305). 1-DNJ was administered by gavage orally after being suspended in 1% carboxymethyl cellulose (CMC) solution. 1-DNJ dose (50 and 100 mg/kg) selection was based on previous studies. A total of 30 Wistar rats were haphazardly assigned into five groups (six rats/group). […]

[2] = tested on: H I/R-induced injury; assay: Apoptotic markers (caspase 3, caspase 9) ELISA after hepatic ischemia-reperfusion; details: compared to H I/R animals
Experimental: as §1, §2
(§3) 1-Deoxynojirimycin hydrochloride (1-DNJ) was purchased from Merck (Merck & Co., USA, product number D 9305). 1-DNJ was administered by gavage orally after being suspended in 1% carboxymethyl cellulose (CMC) solution. 1-DNJ dose (50 and 100 mg/kg) selection was based on previous studies. A total of 30 Wistar rats were haphazardly assigned into five groups (six rats/group). The sham group in which animals were given vehicle (1% CMC) orally for two weeks and subjected to sham steps. 1-DNJ+Sham group in which rats were administered 1-DNJ (100 mg/kg/day) for two weeks and then subjected to sham steps. Third group, the H I/R group, in which rats were administered 1% CMC for two weeks and then hepatic ischemia for 60 min followed by 6 hours reperfusion was implemented. Finally, 1-DNJ 50+H I/R and 1-DNJ 100+H I/R groups in which rats were pretreated with 1-DNJ (50, 100 mg/kg/day) respectively orally for two weeks, then subjected to hepatic I/R surgical procedure.
Once the reperfusion period was completed, animals' blood was obtained through the hearts, centrifuged at 4000×g for 15 min at 4° C., and stored at −20° C. to be utilized in the biochemical estimation of liver function tests, including ALT, AST, ALP, and LDH. Moreover, hepatic tissues were isolated, washed in cool PBS, and distributed in three portions. […]
Inflammation markers including TNF-α (ab46070), […], IL-6 (ab100772) NFκB (ab133112) and IL-10 (ab214566), ELISA kits were obtained from Abcam Co., (Eugene, OR, USA). […] These markers were measured according to the manufacturer's instructions using a microplate reader SpectraMax i3X (Molecular devices San Jose, CA, USA).

[3] = tested on: H I/R-induced injury; assay: Hepatic oxidative stress biomarkers in hepatic tissue homogenate after hepatic ischemia-reperfusion; details: compared to H I/R animals
Experimental: as §1, §2, §3
(§4) Once the reperfusion period was completed, animals' blood was obtained through the hearts, centrifuged at 4000×g for 15 min at 4° C., and stored at −20° C. to be utilized in the biochemical estimation of liver function tests, including ALT, AST, ALP, and LDH. Moreover, hepatic tissues were isolated, washed in cool PBS, and distributed in three portions. The first part was homogenized with PBS, centrifuged at 10,000×g for 15 min at 4° C., and consumed to evaluate oxidative stress and ELISA biomarkers. The second portion was stored at −20° C. for subsequent qRT-PCR and western blot analysis. The third part was fixed with 10% formalin buffered saline to estimate the histopathological variations as well as the immunohistochemical manifestation.
(§5) One-way ANOVA followed by Tukey-Kramer as a post hoc test were executed for multiple comparisons between different experimental groups. p as a level of probability was set at 0.05, indicating the significance level. All statistical analyses were performed using Graph Pad software (version 8, CA, USA).
Oxidative stress-related biomarkers, including antioxidant and lipid peroxidation enzymes such as CAT, SOD, GST, GSH, MDA, and NO contents, were monitored in the hepatic tissue homogenate. Malondialdehyde (MDA; ab238537), glutathione (GSH, ab65322), glutathione-s-transferase (GST, ab65326), nitric oxide (NO, ab272517) assay kits were purchased from Abeam Inc. (Cambridge, UK). Superoxide dismutase (SOD; MBS036924) and catalase (MBS726781) ELISA kits were obtained from My BioSource (San Diego, CA, USA). All the procedures were executed in accordance with the manufacturer's directions.

[4] = tested on: H I/R-induced injury; assay: Hepatic function biomarkers (serum ALT, AST, ALP, LDH) after hepatic ischemia-reperfusion; details: compared to H I/R animals
Experimental: as §1, §2, §3, §4, §5
Rat Alanine Aminotransferase (ALT) ELISA kit (ab285264), Aspartate Aminotransferase (AST) ELISA kit (ab263883), and Alkaline Phosphatase (ALP) colorimetric assay kit (ab83369), Lactate Dehydrogenase (LDH) colorimetric assay kit (ab102526) were obtained from Abcam (Boston, MA, USA) and utilized following the manufacturer's instructions.

[5] = 1-DNJ 50 mg/kg/day orally for 2 weeks before H I/R
[6] = 1-DNJ 100 mg/kg/day orally for 2 weeks before H I/R

Cl.OC[C@H]1NC[C@H](O)[C@@H](O)[C@@H]1O [1-DNJ, 1-Deoxynojirimycin hydrochloride]
histopathological changes by Suzuki scores (congestion, vacuolation, necrosis) ([1]; 1-DNJ preconditioned animals (50 and 100 mg/kg/day orally, 2 weeks), related to H I/R animals): substantial reduction in hepatic congestion and hepatocellular vacuolation and necrosis | histopathological findings (H&E sections) ([1]; 1-DNJ pretreated groups (50 and 100 mg/kg/day orally, 2 weeks) before H I/R): re-established hepatic parenchyma, less hepatocellular necrosis, fewer congested hepatic sinusoids, and portal vasculatures with slight vacuolation | percentage reduction in caspase 3 [2, 5]: 27.62% | percentage reduction in caspase 9 [2, 5]: 20.09% | percentage reduction in caspase 3 [2, 6]: 41.23% | percentage reduction in caspase 9 [2, 6]: 24.86% | percentage elevation in CAT [3, 5]: 114.24% | percentage elevation in GSH [3, 5]: 130.82% | percentage elevation in GST [3, 5]: 49.42% | percentage elevation in SOD [3, 5]: 60.80% | percentage reduction in MDA [3, 5]: 24.18% | percentage reduction in NO [3, 5]: 40.77% | percentage elevation in CAT [3, 6]: 161.09% | percentage elevation in GSH [3, 6]: 194.64% | percentage elevation in GST [3, 6]: 99.02% | percentage elevation in SOD [3, 6]: 89.51% | percentage reduction in MDA [3, 6]: 30.71% | percentage reduction in NO [3, 6]: 55.05% | percentage reduction in ALP [4, 5]: 29.75% | percentage reduction in ALT [4, 5]: 22.26% | percentage reduction in AST [4, 5]: 26.96% | percentage reduction in LDH [4, 5]: 24.39% | percentage reduction in ALP [4, 6]: 44.53% | percentage reduction in ALT [4, 6]: 43.11% | percentage reduction in AST [4, 6]: 41.65% | percentage reduction in LDH [4, 6]: 48.63%
